Reference: US6211168A, “Methods for preparation and use of 1α,24 (S)-dihydroxy vitamin D2” (Bone Care International, Inc, priority 1995, dated 2001)

Experiments:
[1] = system: men and women with renal disease undergoing chronic hemodialysis; assay: hypocalcemia and metabolic bone disease in chronic hemodialysis patients; type: in vivo, human; conditions: greater than 3.0 μg/day, twelve months
Procedure: A twelve-month, double-blind, placebo-controlled clinical trial is conducted with thirty men and women with renal disease who are undergoing chronic hemodialysis. […] Efficacy is evaluated by pre- and post-treatment comparisons of the two patient groups with regard to (a) direct measurements of intestinal calcium absorption, (b) total body calcium retention, (c) radial and spinal bone mineral density, or (d) determinations of serum calcium. Safety is evaluated by regular monitoring of serum calcium.

[2] = system: dermatitis (contact and ectopic) patients; assay: dermatological testing, topical treatment of dermatitis; type: in vivo, human; conditions: ointment 10 μg per gram, twice daily, four to six weeks
Procedure: Compositions containing 1α,24(S)-dihydroxy vitamin D2 are evaluated for therapeutic efficacy of the composition in the topical treatment of dermatitis (contact and ectopic). The composition evaluated is an ointment containing 10 μg of 1α,24-dihydroxy vitamin D2 per gram of ointment in a petrolatum-almond oil base. […] The patients are treated in an out-patient clinic. They are instructed to use the preparation two times a day.
The ointment is as far as possible applied to a single lesion, or to an area of the disease. The ointment and its container are weighed before the treatment starts and returned with any unused contents for reweighing at the end of the treatment.
The area of the lesion treated is estimated and recorded, and the lesion is photographed as required, together with suitable "control" lesions. The latter are preferably lesions of similar size and stage of development, either in the vicinity of the treated lesion or symmetrically contralateral. Relevant details of the photographic procedure are recorded so as to be reproduced when the lesions are next photographed (distance, aperture, angle, background, etc.). The ointment is applied twice daily and preferably left uncovered. The "control" lesions are left untreated, but if this is not possible, the treatment used on them is noted. […]

[3] = system: human cancer cell lines BCA-1 or ZR-75-1 (breast) and COL-1 (colon); assay: antiproliferative activity in human cancer cell lines (thymidine incorporation); type: cell-based; conditions: dose-response
Procedure: Dose-response studies are conducted with 1α,24(S)-(OH)2 D2 in a battery of human cancer cell lines. These cell lines include, but are not limited to, the following: BCA-1 or ZR-75-1 (breast) and COL-1 (colon), as described by Shieh, H. L. et al. Chem. Biol. Interact., vol. 81, pp. 35-55 (1982). In this study, appropriate solvents are used as negative controls.

[4] = molecular target: T1, vitamin D serum binding protein (DBP) (Rattus norvegicus, UniProt P04276); assay: affinity for vitamin D serum binding protein in vitamin D deficient rat serum
T1 sequence (P04276 17-476): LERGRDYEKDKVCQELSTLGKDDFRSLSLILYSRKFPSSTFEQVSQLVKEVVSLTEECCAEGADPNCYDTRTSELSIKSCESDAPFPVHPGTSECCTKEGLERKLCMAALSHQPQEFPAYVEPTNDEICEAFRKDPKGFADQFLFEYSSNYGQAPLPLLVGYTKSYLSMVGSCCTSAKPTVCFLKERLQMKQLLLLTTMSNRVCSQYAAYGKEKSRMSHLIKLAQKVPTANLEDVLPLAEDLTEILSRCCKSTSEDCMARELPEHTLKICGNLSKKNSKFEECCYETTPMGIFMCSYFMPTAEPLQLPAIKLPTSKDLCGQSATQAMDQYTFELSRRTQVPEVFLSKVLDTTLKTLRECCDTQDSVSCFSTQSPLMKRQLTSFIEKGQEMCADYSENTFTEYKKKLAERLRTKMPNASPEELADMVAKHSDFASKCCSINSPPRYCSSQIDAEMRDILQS
From the text: In addition, the weak binding by the DBP was indicative of more rapid clearance, allowing for low toxicity.

[5] = system: postmenopausal osteoporotic out-patients; assay: preventive treatment of bone mass loss in postmenopausal osteoporotic women; type: in vivo, human; conditions: at or above 1.0 μg/day, 24 to 36 months
Procedure: A clinical study is conducted with postmenopausal osteoporotic out-patientshaving ages between 55 and 75 years. The study involves up to 120 patients randomly divided into three treatment groups and continues for 24 to 36 months. Two of the treatment groups receive constant dosages of 1α,24(S)-dihydroxy vitamin D2 (u.i.d.; two different dose levels at or above 1.0 μg/day) and the other group receives a matching placebo. All patients maintain a normal intake of dietary calcium (500 to 800 mg/day) and refrain from using calcium supplements. Efficacy is evaluated by pre-and post-treatment comparisons of the patient groups with regard to (a) total body calcium retention, and (b) radial and spinal bone mineral density as determined by dual-photon absorptiometry (DPA) or dual-energy x-ray absorptiometry (DEXA). Safety is evaluated by comparisons of urinary hydroxyproline excretion, serum and urine calcium levels, creatinine clearance, blood urea nitrogen, and other routine determinations.

Human keratinocytes = assay: epidermal cell differentiation and proliferation testing; type: cell-based; conditions: 0.05 to 5 μg/ml, versus ethanol control cultures
Procedure: Human keratinocytes are cultured according to known modifications of the system originally described by Rheinwald and Green (Cell, vol. 6, p. 331 (1975)). The 1α,24(S)-dihydroxy vitamin D2, dissolved in ethanol, is added to cells to yield a variety of concentrations between 0.05 and 5 μg/ml with the ethanol concentration not to exceed 0.5% v/v. Control cultures are supplemented with ethanol at a final concentration of 0.5% v/v.
Differentiation and proliferation of epidermal cells in culture is examined by:
1. quantitation of cornified envelopes;
2. quantitation of cell density of cells attached to disks;
3. monitoring transglutaminase activity; or
4. monitoring DNA synthesis by incorporation of ^3 H-thymidine.

[6] = system: postmenopausal osteoporotic women; assay: dose ranging study in postmenopausal osteoporotic women; type: in vivo, human; conditions: oral 0.5 to 8.0 μg/day escalating over five weeks
Procedure: Twenty postmenopausal osteoporotic women are enrolled in an open label study.
On admission to the study, all patients receive instruction on selecting a daily diet containing 400 to 600 mg of calcium. Compliance to this diet is verified at weekly intervals by 24-hour food records and by interviews with each patient.
All patients complete a one-week baseline period, a five-week treatment period, and a one-week post-treatment observation period. During the treatment period, patients orally self-administer 1α,24(S)-dihydroxyvitamin D2 at an initial dose of 0.5 μg/day for the first week, and at successively higher doses of 1.0, 2.0, 4.0, and 8.0 μg/day in each of the following four weeks. All doses are administered before breakfast.
Blood and urine chemistries are monitored on a weekly basis throughout the study. Key blood chemistries include fasting serum levels of calcium, phosphorus, osteocalcin, creatinine, and blood urea nitrogen. Key urine chemistries include 24-hour excretion of calcium, phosphorus, and creatinine.

C=C1/C(=C\C=C2/CCC[C@]3(C)[C@@H]([C@H](C)/C=C/[C@@](C)(O)C(C)C)CC[C@@H]23)C[C@@H](O)C[C@@H]1O [1α,24(S)-(OH)2 D2, 1α,24(S)-dihydroxy vitamin D2]
radial and spinal bone densities relative to baseline [1]: stable radial and spinal bone densities
total body calcium relative to baseline [1]: stable values for total body calcium
intestinal calcium absorption ([1]; double-isotope technique): significantly increases intestinal calcium absorption
lesion severity score (erythema, scaling, thickness; 0 to 3) [2]: lower scores than the control lesions
antiproliferative activity, inhibition of thymidine incorporation [3]: potent (and reversible) antiproliferative activity
binding affinity for the vitamin D serum binding protein [4]: relatively poor binding affinity
binding to the vitamin D serum binding protein relative to 1,25-(OH)2 D3 [4]: more weakly than does 1,25-(OH)2 D3
incidence of hypercalcemia, hypercalciuria or other metabolic disturbance [5]: insignificant incidence of hypercalcemia or hypercalciuria, or any other metabolic disturbance
total body calcium, radial and spinal bone densities relative to placebo [5]: significantly higher total body calcium, and radial and spinal bone densities relative to patients treated with placebo
DNA synthesis by incorporation of 3H-thymidine (Human keratinocytes): lower DNA synthesis
cell density of cells attached to disks (Human keratinocytes): fewer attached cells
cornified envelopes (Human keratinocytes): more cornified envelopes
transglutaminase activity (Human keratinocytes): higher transglutaminase activity
24-hour urinary calcium levels [6]: modest increases in 24-hour urinary calcium levels
routinely monitored serum parameters [6]: no effect on any routinely monitored serum parameters
serum osteocalcin levels [6]: increases in serum osteocalcin levels
urinary excretion of hydroxyproline [6]: nor does it increase urinary excretion of hydroxyproline
